Key:
[1] = molecular target: T1, RSK3 (Homo sapiens, UniProt Q15349); assay: Miniaturized 33P-based kinase screening assay; assay type: biochemical; details: max 10 µM, 3-fold serial dilution, n = 2
T1 construct: purchased Reaction Biology Corporation (Malvern, PA), contract assay
Description: (§1) The RSK2 in vitro kinase inhibition assay utilized was a modification of protocols established by Nguyen et al.. Additional protocols that confirmed the results depicted in Figure 4 and evaluated kinase inhibitory activity in a random selection of protein kinases (Table 3) were conducted at Reaction Biology Corporation (Malvern, PA). This was a miniaturized ^33P-based screening assay.

[2] = molecular target: T2, p70S6K (Homo sapiens, UniProt P23443); assay: Miniaturized 33P-based kinase screening assay; assay type: biochemical; details: max 10 µM, 3-fold serial dilution, n = 2
T2 construct: purchased Reaction Biology Corporation (Malvern, PA), contract assay
Description: as §1

[3] = molecular target: T3, RSK1 (Homo sapiens, UniProt Q15418); assay: Miniaturized 33P-based kinase screening assay; assay type: biochemical; details: max 10 µM, 3-fold serial dilution, n = 2
T3 construct: purchased Reaction Biology Corporation (Malvern, PA), contract assay
Description: as §1

[4] = molecular target: T4, RSK4 (Homo sapiens, UniProt Q9UK32); assay: Miniaturized 33P-based kinase screening assay; assay type: biochemical; details: max 10 µM, 3-fold serial dilution, n = 2
T4 construct: purchased Reaction Biology Corporation (Malvern, PA), contract assay
Description: as §1

[5] = molecular target: RSK2 (Homo sapiens, UniProt P51812); assay: Miniaturized 33P-based kinase screening assay; assay type: biochemical; details: max 10 µM, 3-fold serial dilution, n = 2
Description: as §1

[6] = molecular target: T5, PLK2 (Homo sapiens, UniProt Q9NYY3); assay: Miniaturized 33P-based kinase screening assay; assay type: biochemical; details: max 10 µM, 3-fold serial dilution, n = 2
T5 construct: purchased Reaction Biology Corporation (Malvern, PA), contract assay
Description: as §1

[7] = molecular target: T6, PIM1 (Homo sapiens, UniProt P11309); assay: Miniaturized 33P-based kinase screening assay; assay type: biochemical; details: max 10 µM, 3-fold serial dilution, n = 2
T6 construct: purchased Reaction Biology Corporation (Malvern, PA), contract assay
Description: as §1

[8] = molecular target: T7, Abl1 (Homo sapiens, UniProt P00519); assay: Miniaturized 33P-based kinase screening assay; assay type: biochemical; details: max 10 µM, 3-fold serial dilution, n = 2
T7 construct: purchased Reaction Biology Corporation (Malvern, PA), contract assay
Description: as §1

[9] = test system: HT29; assay: Sphere formation in serum free media and low attachment vessels; assay type: cell-based; details: serum free media, low attachment vessels, 0.1 µM SC-1, Day 1 and Day 5
Description: HT29 tumor line was cultured at 0.5–8 cells/µl in serum free media (RPMI 1640 containing EGF (20 ng/ml), bFGF (10 ng/ml) and B27 supplement) one day prior to addition of SC-1 (0.1 µM). The number of spheres per well was counted on Day 1 (A) and Day 5 (B) following treatment. Statistically significant effects (*p<0.05) for SC-1 treatment were found at all conditions where spheres formed. A representative experiment of 3 is shown here. (PDF) Click here for additional data file.

[10] = test system: KM12; assay: Limiting dilution tumorigenicity, s.c. xenograft without protein support; assay type: in vivo, NOD.SCID mice; details: KM12 treated 5 days with 0.1 µM SC-1
Description: Five day exposures were conducted.
Six week old female NOD.SCID mice were randomly assigned to each of 20 treatment arms (n = 5/group). Treated and control colon tumor lines were enzymatically harvested and counted prior to dilution in RPMI 1640 (at 10, 100, 1,000, 10,000 cells/inoculum) for subcutaneous injection into the axillary region using a volume of […]. Positive control groups were established such that tumor formation occurred in all mice in approximately one week thus confirming that all tumor lines studied were tumorigenic. Cell inocula for the positive control groups ranged from 1×10^6 to 2.5×10^6. Cell viability of the cell stocks was assessed by trypan blue exclusion prior to dilution for injection and was routinely found to be >95%. Tumor formation was monitored weekly using caliper measurements and the tumor mass was calculated as weight in mg = 1/2×(tumor length)×(tumor width)^2. All experiments were terminated at 120 days or when tumor weight exceeded 2000 mg for any individual mouse. In selected studies, tumor cells were resuspended in Matrigel (50% concentration, BD Biosciences) prior to injection.

[11] = test system: colon tumor lines; assay: FACS analysis of CD326 and CD166, all tumor lines; assay type: cell-based; details: any of the tumor lines; five days of SC-1 treatment
Description: A BD FACsAria (BD Biosciences, San Jose, CA) was utilized for FACS analysis according to standard procedures. The instrument was equipped with a 488 nm 100 mW blue laser, a 638 nm 30 mW red laser, and a 405 nm 50 mW violet laser. The software package Diva 5.0 (BD Biosciences) was used for collection and analysis of data. The alignment of the three lasers in the flow cell was verified prior to running tumor cell samples by running Rainbow Beads (Spherotech). The six colors being used in the analysis were then compensated to account for spectral overlap emitted by the fluorochromes within each laser as well as across the lasers using a semi-automated process. […] The data was then run through the Diva software compensation matrices and the amount of “spectral bleed” from other fluorochromes into the fluorochrome of interest’s channel was determined and automatically compensated.
Treated and untreated cells (1×10^6 cells/condition) were harvested with trypsin EDTA (Invitrogen), washed, and then labeled with a six antibody cocktail (antibodies against the following epitopes: CD44, CD24, CD133, CD326, CD166, and P-glycoprotein in PBS without calcium and magnesium supplemented with 2% FBS) or appropriate isotype control antibodies. […] The specific amounts needed for each labeled antibody were determined through titration studies. […]

[12] = test system: OCT4; assay: Immunoblotting of OCT4 in HT29; assay type: cell-based; details: 0.1 µM SC-1
Description: Standard protein electrophoretic techniques were followed using previously published protocols. For these studies, the colon lines were cultured for 5 days with and without treatments, harvested with trypsin (0.25% trypsin 0.5 mM EDTA, Invitrogen), counted and lysed with a whole cell lysis buffer (10 mM Tris, 1.0 mM EDTA, 50 mM NaCl, 0.5% deoxycholate, 0.5% NP-40, 0.5% SDS, 1.0 mM PMSF, and aprotonin and a cocktail of phosphatase and protease inhibitors). The whole cell lysate was heated to 100°C for 10 min and then fractionated (1000 g, 10 min, 4°C). Protein concentrations were measured with the Pierce BCA Protein Assay. Twenty to 40 µg of protein lysate per lane were loaded onto 10% SDS polyacrylamide gels (Ready-Gels, Biorad) with Laemmli buffer. For immunoblotting, the primary antibodies were diluted in Tween/Tris wash buffer (0.1 mM Tris-HCl pH 7.5, 2.5% Tween-20, 150 mM NaCl) and 5% BSA or nonfat dry milk and incubated overnight at 4°C. Visualization of specific bands was accomplished with an alkaline phosphatase-labeled secondary anti-immunoglobulin antibody and the ECF Chemifluorescent reagent (GE Amersham). Pixel intensity of the imaged bands was measured using STORM (GE Amersham) and Image Quant Software. Normalization for loading was accomplished by reprobing with an anti-actin antibody, quantification of pixel intensity and data normalization.

T5 sequence (Q9NYY3 whole entry): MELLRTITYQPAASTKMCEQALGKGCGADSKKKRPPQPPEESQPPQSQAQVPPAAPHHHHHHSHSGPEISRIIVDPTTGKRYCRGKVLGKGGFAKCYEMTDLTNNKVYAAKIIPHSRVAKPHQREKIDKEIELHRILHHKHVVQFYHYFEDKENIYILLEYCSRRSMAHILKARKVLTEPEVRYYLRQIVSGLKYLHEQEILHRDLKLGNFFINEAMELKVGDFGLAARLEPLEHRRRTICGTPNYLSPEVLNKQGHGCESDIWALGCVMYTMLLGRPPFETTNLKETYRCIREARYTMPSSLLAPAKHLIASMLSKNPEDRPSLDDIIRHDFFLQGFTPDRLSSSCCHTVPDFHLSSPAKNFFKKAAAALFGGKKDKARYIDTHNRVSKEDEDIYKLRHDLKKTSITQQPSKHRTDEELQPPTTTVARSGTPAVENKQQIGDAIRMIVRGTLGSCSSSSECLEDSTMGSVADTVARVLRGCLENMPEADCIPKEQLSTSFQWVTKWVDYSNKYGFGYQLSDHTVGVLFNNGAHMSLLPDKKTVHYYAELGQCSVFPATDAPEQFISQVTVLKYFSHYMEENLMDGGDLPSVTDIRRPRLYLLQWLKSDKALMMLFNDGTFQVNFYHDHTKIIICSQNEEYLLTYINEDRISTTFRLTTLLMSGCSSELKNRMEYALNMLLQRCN
T4 sequence (Q9UK32 whole entry): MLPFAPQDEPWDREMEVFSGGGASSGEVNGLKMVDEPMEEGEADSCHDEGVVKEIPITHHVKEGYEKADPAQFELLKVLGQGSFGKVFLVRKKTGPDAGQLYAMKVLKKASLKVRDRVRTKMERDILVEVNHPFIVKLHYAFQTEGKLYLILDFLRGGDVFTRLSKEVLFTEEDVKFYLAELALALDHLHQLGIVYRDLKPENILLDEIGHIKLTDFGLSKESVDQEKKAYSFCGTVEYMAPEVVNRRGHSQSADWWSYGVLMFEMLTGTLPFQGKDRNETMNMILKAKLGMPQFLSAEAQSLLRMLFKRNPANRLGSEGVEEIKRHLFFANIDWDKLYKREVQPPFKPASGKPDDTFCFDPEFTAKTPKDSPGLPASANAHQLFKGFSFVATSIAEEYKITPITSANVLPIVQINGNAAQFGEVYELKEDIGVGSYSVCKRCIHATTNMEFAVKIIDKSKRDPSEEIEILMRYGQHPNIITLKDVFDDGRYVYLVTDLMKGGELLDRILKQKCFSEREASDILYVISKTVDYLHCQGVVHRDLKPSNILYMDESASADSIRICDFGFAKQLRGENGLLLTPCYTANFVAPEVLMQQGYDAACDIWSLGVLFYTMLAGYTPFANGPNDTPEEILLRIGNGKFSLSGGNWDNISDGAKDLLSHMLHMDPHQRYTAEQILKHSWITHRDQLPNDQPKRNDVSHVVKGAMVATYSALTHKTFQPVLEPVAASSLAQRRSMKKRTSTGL
T6 sequence (P11309 whole entry): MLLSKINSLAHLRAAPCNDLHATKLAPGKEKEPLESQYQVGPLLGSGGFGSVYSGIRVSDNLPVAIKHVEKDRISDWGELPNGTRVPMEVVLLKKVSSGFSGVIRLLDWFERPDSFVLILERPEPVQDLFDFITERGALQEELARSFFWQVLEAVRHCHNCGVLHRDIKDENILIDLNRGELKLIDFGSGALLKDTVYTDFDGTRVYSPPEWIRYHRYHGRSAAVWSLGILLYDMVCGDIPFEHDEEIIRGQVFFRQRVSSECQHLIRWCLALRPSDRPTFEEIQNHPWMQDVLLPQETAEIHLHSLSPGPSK
T7 sequence (P00519 whole entry): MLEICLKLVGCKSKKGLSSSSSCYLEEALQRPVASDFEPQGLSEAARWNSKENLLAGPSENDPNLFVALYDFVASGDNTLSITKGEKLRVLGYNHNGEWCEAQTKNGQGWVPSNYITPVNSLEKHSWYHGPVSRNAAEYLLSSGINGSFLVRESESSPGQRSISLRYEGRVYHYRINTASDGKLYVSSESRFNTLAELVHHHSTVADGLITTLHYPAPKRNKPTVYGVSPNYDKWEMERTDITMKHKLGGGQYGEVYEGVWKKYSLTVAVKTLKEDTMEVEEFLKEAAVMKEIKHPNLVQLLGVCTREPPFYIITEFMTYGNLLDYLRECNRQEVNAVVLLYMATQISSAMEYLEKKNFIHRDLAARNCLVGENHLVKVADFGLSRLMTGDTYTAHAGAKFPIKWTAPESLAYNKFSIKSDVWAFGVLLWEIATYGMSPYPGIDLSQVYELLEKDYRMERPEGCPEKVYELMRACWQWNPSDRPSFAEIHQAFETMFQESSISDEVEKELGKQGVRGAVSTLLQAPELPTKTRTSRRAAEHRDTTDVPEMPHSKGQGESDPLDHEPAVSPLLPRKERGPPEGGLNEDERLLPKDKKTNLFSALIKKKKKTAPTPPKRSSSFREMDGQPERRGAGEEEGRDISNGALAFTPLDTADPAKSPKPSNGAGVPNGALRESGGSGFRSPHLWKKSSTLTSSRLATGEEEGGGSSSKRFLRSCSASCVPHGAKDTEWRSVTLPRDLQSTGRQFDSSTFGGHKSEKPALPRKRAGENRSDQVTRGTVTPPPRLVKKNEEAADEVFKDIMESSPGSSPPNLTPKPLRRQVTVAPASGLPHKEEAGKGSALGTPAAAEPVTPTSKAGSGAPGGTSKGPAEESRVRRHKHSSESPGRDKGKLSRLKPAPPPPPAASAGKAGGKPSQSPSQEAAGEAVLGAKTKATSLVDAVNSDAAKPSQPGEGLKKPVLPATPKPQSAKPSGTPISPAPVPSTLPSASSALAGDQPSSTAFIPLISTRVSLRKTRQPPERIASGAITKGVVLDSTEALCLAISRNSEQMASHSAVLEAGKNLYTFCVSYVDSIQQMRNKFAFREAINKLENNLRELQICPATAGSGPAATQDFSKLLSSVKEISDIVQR
RSK2, sequence (P51812 whole entry, species assumed): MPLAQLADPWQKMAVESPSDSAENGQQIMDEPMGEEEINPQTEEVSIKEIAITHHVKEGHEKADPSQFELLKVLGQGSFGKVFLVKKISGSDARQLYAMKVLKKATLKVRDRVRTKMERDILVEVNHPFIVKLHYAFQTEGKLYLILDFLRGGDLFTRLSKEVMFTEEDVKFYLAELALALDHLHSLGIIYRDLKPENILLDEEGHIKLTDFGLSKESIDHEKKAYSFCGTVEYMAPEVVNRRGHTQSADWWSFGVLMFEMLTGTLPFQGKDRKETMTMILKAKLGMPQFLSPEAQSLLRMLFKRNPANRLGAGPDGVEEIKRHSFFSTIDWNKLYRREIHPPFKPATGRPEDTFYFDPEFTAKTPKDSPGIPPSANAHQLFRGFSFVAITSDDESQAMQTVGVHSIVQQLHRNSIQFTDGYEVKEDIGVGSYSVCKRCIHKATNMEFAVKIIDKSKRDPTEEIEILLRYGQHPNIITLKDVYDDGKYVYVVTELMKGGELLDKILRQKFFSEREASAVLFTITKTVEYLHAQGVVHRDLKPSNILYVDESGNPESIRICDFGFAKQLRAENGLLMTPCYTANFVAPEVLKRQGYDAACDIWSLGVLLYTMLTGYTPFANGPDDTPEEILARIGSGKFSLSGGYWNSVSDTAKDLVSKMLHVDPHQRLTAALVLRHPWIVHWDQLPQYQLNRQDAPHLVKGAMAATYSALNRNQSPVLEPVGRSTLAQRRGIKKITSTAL
T2 sequence (P23443 whole entry): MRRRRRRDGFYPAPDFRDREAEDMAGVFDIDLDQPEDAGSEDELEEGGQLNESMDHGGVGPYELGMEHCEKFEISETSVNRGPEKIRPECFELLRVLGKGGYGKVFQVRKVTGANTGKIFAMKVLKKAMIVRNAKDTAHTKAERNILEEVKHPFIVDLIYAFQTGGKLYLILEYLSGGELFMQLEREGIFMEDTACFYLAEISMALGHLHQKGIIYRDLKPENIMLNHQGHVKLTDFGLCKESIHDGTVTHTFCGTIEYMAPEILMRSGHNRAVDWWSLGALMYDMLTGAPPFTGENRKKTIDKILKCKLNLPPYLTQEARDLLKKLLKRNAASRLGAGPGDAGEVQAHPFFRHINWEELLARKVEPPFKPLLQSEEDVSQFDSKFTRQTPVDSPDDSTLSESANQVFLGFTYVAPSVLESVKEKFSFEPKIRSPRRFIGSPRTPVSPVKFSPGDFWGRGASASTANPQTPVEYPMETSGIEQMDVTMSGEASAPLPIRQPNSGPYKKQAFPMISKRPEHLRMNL
T1 sequence (Q15349 whole entry): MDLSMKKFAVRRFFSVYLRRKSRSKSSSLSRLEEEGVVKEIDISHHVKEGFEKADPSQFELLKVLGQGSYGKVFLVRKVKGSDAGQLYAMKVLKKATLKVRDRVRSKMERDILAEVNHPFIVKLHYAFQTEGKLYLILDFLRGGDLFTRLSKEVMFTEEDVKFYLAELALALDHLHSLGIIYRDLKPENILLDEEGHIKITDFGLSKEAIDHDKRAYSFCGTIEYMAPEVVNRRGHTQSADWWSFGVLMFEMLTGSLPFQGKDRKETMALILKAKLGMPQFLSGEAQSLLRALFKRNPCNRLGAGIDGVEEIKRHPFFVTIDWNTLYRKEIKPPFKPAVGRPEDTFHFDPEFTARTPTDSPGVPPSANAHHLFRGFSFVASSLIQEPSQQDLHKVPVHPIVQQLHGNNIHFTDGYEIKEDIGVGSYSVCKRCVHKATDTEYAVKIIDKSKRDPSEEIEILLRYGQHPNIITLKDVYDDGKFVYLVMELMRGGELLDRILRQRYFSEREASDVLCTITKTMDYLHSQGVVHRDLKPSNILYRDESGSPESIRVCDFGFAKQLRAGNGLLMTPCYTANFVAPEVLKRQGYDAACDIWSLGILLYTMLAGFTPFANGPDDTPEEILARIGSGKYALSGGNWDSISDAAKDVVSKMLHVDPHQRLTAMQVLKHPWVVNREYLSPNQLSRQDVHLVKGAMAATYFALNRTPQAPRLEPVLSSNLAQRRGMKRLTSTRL

- IC50 [1]: 3.3 µM
- IC50 [2]: 1.4 µM
- IC50 [3]: 0.5 µM
- IC50 [4]: 10 µM
- IC50 [5]: 2.5 µM
- IC50 [6]: 2.2 µM
- IC50 [7]: ≥ 10 µM
- IC50 [8]: 0.005 µM
SMILES: Cc1cc(Nc2ncc3c(n2)N(C)C(=O)N(c2cc(NC(=O)c4cccc(C(F)(F)F)c4)ccc2C)C3)n(C)n1 [SC-1]
- Number of spheres per well vs control [9]: Increased Sphere Formation
- Tumor take rate ([10]; 100 cells inoculated s.c.): 0/5
- Tumor take rate ([10]; 1000 cells inoculated s.c.): 0/5
- Tumor take rate ([10]; 10000 cells inoculated s.c.): 1/5
- CD326 and CD166 surface expression [11]: No changes
- OCT4 protein expression [12]: increased
